Format in all cases: biochemical
The target of experiment [1] is T1, human DNA polymerase λ (Homo sapiens, UniProt Q9UGP5).
T1 construct: Recombinant full-length human DNA polymerase λ and β were generated and purified as described; made in house
T1 sequence (Q9UGP5 1-575): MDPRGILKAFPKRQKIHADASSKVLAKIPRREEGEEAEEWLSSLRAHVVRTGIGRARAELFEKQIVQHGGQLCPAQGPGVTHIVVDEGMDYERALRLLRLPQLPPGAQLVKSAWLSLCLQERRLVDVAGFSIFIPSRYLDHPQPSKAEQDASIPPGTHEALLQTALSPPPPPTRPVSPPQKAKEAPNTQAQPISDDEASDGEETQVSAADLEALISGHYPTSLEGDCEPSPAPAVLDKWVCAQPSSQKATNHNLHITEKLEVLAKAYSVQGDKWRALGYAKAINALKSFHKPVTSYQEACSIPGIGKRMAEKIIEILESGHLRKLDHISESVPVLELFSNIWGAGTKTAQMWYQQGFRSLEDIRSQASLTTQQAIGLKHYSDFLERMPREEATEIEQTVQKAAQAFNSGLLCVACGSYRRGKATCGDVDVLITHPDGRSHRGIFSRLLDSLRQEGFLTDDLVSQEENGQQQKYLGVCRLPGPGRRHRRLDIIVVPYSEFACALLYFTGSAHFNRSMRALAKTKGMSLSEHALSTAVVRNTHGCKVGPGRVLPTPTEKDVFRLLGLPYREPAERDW
The experiment in a line: Terminal transferase assay, DNA polymerase λ (TdT-like activity). The note with it: for IC50: enzymatic assay, TdT-like activity of pol λ, read-out: ID50 pol λ (TdT). The method, then: (§1) Recombinant full-length human DNA polymerase λ and β were generated and purified as described. After purification, the protein was >90% homogeneous, as judged by sodium dodecyl sulphate (SDS)−polyacrylamide gel electrophoresis (PAGE) and Coomassie staining. TdT was from Trevigen (Gaithersburg, MD).
(§2) Terminal Transferase Assay. DNA polymerase λ and TdT terminal transferase activities were assayed in a final volume of 25 μL containing 50 mM Tris-HCl (pH 7.0), 0.25 mg/mL BSA, 1 mM DTT, 0.2 μM ss 30mer (AAC)10 DNA oligonucleotide, 25 μM [3H]dNTPs (10 Ci/mmol) and 0.5 mM MnCl2 or 5 mM MgCl2 used as cofactors. Terminal transferase activity was monitored in the presence of 10% DMSO or in the presence of increasing amounts of inhibitors dissolved in DMSO. All reactions were incubated for 10 min at 37 °C and the DNA precipitated with 10% trichloroacetic acid. Insoluble radioactive material was determined by scintillation counting using Trilux beta-counter (PerkinElmer) as described.
(§3) Dose − response curves were generated by computer fitting of the data to the equation E(%) = Emax/(1 + I/ID50) where E(%) is the fraction of enzyme’s activity measured in the presence of the inhibitor, Emax is the activity in the absence of the inhibitor, I is the inhibitor concentration, and ID50 is the inhibitor concentration at which E(%) = 0.5 Emax. ID50 values were generated using GraphPad Prism 6.

Experiment [2] concerns the target T1, human DNA polymerase λ. The experiment can be described thus: Polymerase assay, DNA polymerase λ (template-dependent). Conditions: for pol λ (Pol) Residual activity (%) Mg2+ / pol λ (Pol) Residual activity (%) Mn2+: after treatment 100 mM; for IC50: enzymatic assay, template-dependent polymerase activity, read-out: ID50 pol λ (Pol); for residual polymerase activities: fix concentration of 100 µM, pol λ. The method, then: as §1
(§4) Polymerase Assay: Activity of DNA polymerase λ and β were assessed using poly(dA)/oligo(dT)10:1 substrate in a final volume of 25 μL containing 50 mM Tris-HCl (pH 7.0), 0.25 mg/mL BSA, 1 mM, DTT, 0.2 μM poly(dA)/oligo(dT)10:1 (3′-OH ends), 50 nM DNA polymerase λ or β, 5 μM [3H]-2′-deoxythymidine 5′-triphosphate (dTTP) (5 Ci/mmol), and 0.5 mM MnCl2 or 5 mM MgCl2 used as cofactors. The polymerase activity was monitored in the presence of 10% DMSO or in the presence of increasing amounts of inhibitors dissolved in DMSO. All reactions were incubated for 15 min at 37 °C and the DNA precipitated with 10% trichloroacetic acid. Insoluble radioactive material was determined by scintillation counting using Trilux beta-counter (PerkinElmer) as described.
as §3

Experiment [3] addresses T2, human TdT (Homo sapiens, UniProt P04053).
T2 construct: purchased Trevigen (Gaithersburg, MD)
The experiment in a line: Terminal transferase assay, TdT. How it is done:
as §1, §2, §3

The target in experiment [4] is T3, human DNA polymerase β (Homo sapiens, UniProt P06746).
T3 construct: Recombinant full-length human DNA polymerase λ and β were generated and purified as described; made in house
The experiment can be described thus: Polymerase assay, DNA polymerase β. The note with it: for pol β Residual activity (%) Mg2+ / pol β Residual activity (%) Mn2+: after treatment 100 mM; for IC50: enzymatic assay, read-out: ID50 pol β; for residual polymerase activities: fix concentration of 100 µM, pol β. How it is done: as §1, §4, §3

Where [5] appears, read: human TdT, Mn2+ as cofactor, read-out: ID50 (µM) Mn2+.
Where [6] appears, read: human TdT, Mg2+ as cofactor, read-out: ID50 (µM) Mg2+.

Like-named read-outs stand apart in the source and are kept apart here.

The text below walks through data of paper PMC12150604, “Exploring structure–activity relationships of pyrrolyl diketo acid derivatives as non-nucleoside inhibitors of terminal deoxynucleotidyl transferase enzyme” (Journal of Enzyme Inhibition and Medicinal Chemistry, 2025).

T2 sequence (P04053 whole entry): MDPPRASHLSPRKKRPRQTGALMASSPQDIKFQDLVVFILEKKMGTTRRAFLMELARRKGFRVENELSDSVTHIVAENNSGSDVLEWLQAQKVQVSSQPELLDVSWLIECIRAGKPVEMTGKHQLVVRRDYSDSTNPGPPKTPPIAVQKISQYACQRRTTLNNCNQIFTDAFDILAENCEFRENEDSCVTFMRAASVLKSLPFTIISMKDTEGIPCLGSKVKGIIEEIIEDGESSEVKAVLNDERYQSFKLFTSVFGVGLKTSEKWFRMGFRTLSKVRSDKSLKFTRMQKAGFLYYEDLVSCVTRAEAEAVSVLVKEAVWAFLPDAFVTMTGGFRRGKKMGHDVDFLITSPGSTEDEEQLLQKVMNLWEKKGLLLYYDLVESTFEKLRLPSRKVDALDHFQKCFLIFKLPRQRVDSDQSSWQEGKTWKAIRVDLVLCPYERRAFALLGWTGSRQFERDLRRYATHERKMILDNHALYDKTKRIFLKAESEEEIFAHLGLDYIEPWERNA

Take “4-(1-(4-fluorobenzyl)-4-phenyl-1H-pyrrol-3-yl)-2,4-dioxobutanoic acid [Compound 12b]”: the “pol λ (TdT) Residual activity (%) Mn2+” value in experiment [1] (after treatment 100 mM, Mn2+) amounted to 100%. For the same molecule, in experiment [2], the “pol λ (Pol) Residual activity (%) Mg2+” value was determined as 74.0% and the “pol λ (Pol) Residual activity (%) Mn2+” value was 79.0%. For the same molecule, the “ID50 (µM) Mn2+” value in experiment [3] (human TdT, Mn2+ as cofactor) was 10.10 ± 4.1 µM. Also, the IC50 in experiment [3] (setting [5]) is 10.10 µM. In experiment [4], the “pol β Residual activity (%) Mg2+” value stood at 51.7% and the “pol β Residual activity (%) Mn2+” value came to 82.5%.
Take `CCOC(=O)/C(O)=C/C(=O)/C=C/c1cc(C(=O)c2ccccc2)cn1Cc1ccc(Cl)cc1` [Compound 5h]: the IC50 in experiment [1] was above 100 µM; in experiment [2], 4.08 ± 0.4 µM; in experiment [3] (setting [6]), 17.51 ± 0.12 µM; in experiment [3] (setting [5]), above 50 µM; in experiment [4] it was 12.4 ± 0.3 µM. The residual polymerase activities entry in experiment [2] and in experiment [4] was “less than 10%” in each case.
Turning to `CCOC(=O)/C(O)=C/C(=O)/C=C/c1cc(C(=O)c2ccccc2)cn1Cc1ccc(OC)cc1` [Compound 5i], the IC50 in experiment [1] was above 100 µM; in experiment [2] it was 4.07 ± 0.3 µM; in experiment [3] (setting [6]), 10.5 ± 0.2 µM; in experiment [3] (setting [5]), above 50 µM; in experiment [4] it was 7.94 ± 0.1 µM. For the same molecule, the residual polymerase activities entry in experiment [2] and in experiment [4] was “less than 10%” throughout.
`O=C(/C=C(\O)C(=O)O)/C=C/c1cc(C(=O)c2ccccc2)cn1Cc1ccc(Cl)cc1` [Compound 6h]: the IC50 in experiment [1] was above 100 µM; in experiment [2] it was 4.06 ± 0.2 µM; in experiment [3] (setting [6]), 5.1 ± 0.12 µM; in experiment [4], 20 ± 0.4 µM. In addition, the residual polymerase activities result in experiment [2] and in experiment [4] was “less than 10%” throughout.
For the molecule `COc1ccc(Cn2cc(C(=O)c3ccccc3)cc2/C=C/C(=O)/C=C(\O)C(=O)O)cc1` [Compound 6i], the IC50 in experiment [1] is above 100 µM; in experiment [2], 4.06 ± 0.1 µM; in experiment [3] (setting [6]) it was 2.7 ± 0.32 µM; in experiment [3] (setting [5]), above 50 µM; in experiment [4] it was 14.7 ± 0.8 µM. In addition, the residual polymerase activities entry in experiment [2] and in experiment [4] was “less than 10%” throughout.
On to `COc1cc(C(=O)c2c[nH]c(/C=C/C(=O)/C=C(\O)C(=O)O)c2)cc(OC)c1OC` [Compound 6k], for which the values for the IC50 in experiment [3] (setting [6]) and in experiment [3] (setting [5]) were 0.86 ± 0.14 µM and 0.38 ± 0.06 µM, respectively.
As for `O=C(/C=C(\O)C(=O)O)/C=C/c1cc(C(=O)c2ccccc2)c[nH]1` [Compound 6l, (2Z,5E)-6-(4-benzoyl-1H-pyrrol-2-yl)-2-hydroxy-4-oxohexa-2,5-dienoic acid], the results for the IC50 in experiment [3] (setting [6]) and in experiment [3] (setting [5]) were 0.22 ± 0.01 µM and 0.3 ± 0.13 µM, respectively.
`O=C(/C=C(\O)C(=O)O)/C=C/c1cc(C(=O)c2ccccc2)cn1S(=O)(=O)c1ccc(F)cc1` [Compound 6m]: the IC50 in experiment [3] (setting [6]) was determined as 0.34 ± 0.01 µM; in experiment [3] (setting [5]), 0.33 ± 0.05 µM.
Regarding `CCOC(=O)/C(O)=C/C(=O)/C=C/c1ccn(Cc2ccc(F)cc2)c1` [Compound 7a, Ethyl (2Z,5E)-6-(1-(4-fluorobenzyl)-1H-pyrrol-3-yl)-2-hydroxy-4-oxohexa-2,5-dienoate], in experiment [3] (setting [5]), the IC50 is above 50 µM.
Turning to `CCOC(=O)/C(O)=C/C(=O)/C=C/c1cn(Cc2ccc(F)cc2)cc1-c1ccccc1` [Compound 7b, Ethyl (2Z,5E)-6-(1-(4-fluorobenzyl)-4-phenyl-1H-pyrrol-3-yl)-2-hydroxy-4-oxohexa-2,5-dienoate], in experiment [3] (setting [5]), the IC50 came out at 2.72 ± 0.73 µM.
Consider `CCOC(=O)/C(O)=C/C(=O)/C=C/c1c[nH]cc1-c1ccccc1` [Compound 7c], for which the figures for the IC50 in experiment [3] (setting [6]) and in experiment [3] (setting [5]) were 10.5 ± 3.6 µM and above 50 µM, respectively.
Consider `CCOC(=O)/C(O)=C/C(=O)/C=C/c1c[nH]cc1-c1cc(OC)c(OC)c(OC)c1` [Compound 7d], for which the figures for the IC50 in experiment [3] (setting [6]) and in experiment [3] (setting [5]) were 21.3 ± 5.05 µM and above 50 µM, respectively.
As for `O=C(/C=C(\O)C(=O)O)/C=C/c1ccn(Cc2ccc(F)cc2)c1` [Compound 8a, (2Z,5E)-6-(1-(4-fluorobenzyl)-1H-pyrrol-3-yl)-2-hydroxy-4-oxohexa-2,5-dienoic acid], the IC50 in experiment [3] (setting [5]) is 6.31 ± 2.8 µM.
Turning to `O=C(/C=C(\O)C(=O)O)/C=C/c1cn(Cc2ccc(F)cc2)cc1-c1ccccc1` [Compound 8b, (2Z,5E)-6-(1-(4-fluorobenzyl)-4-phenyl-1H-pyrrol-3-yl)-2-hydroxy-4-oxohexa-2,5-dienoic acid], the IC50 in experiment [3] (setting [5]) was found to be 0.66 ± 0.12 µM.
For `O=C(/C=C(\O)C(=O)O)/C=C/c1c[nH]cc1-c1ccccc1` [Compound 8c], in experiment [3] (TdT), the “improvement in inhibitory activity in respect to hit compound 4” value is reported as “higher than 3 times”. The IC50 in experiment [3] (setting [5]) is 0.19 ± 0.08 µM.
Regarding `COc1cc(-c2c[nH]cc2/C=C/C(=O)/C=C(\O)C(=O)O)cc(OC)c1OC` [Compound 8d], the figures for the IC50 in experiment [3] (setting [6]) and in experiment [3] (setting [5]) were 0.24 ± 0.03 µM and 0.23 ± 0.03 µM, respectively.
For the molecule `CCOC(=O)/C(O)=C/C(=O)c1cccn1Cc1ccc(F)cc1` [Compound 9a, Ethyl (Z)-4-(1-(4-fluorobenzyl)-1H-pyrrol-2-yl)-2-hydroxy-4-oxobut-2-enoate], the IC50 in experiment [3] (setting [5]) is above 50 µM.
On to `CCOC(=O)/C(O)=C/C(=O)c1cc(-c2ccccc2)cn1Cc1ccc(F)cc1` [Compound 9b, Ethyl (Z)-4-(1-(4-fluorobenzyl)-4-phenyl-1H-pyrrol-2-yl)-2-hydroxy-4-oxobut-2-enoate], for which the IC50 in experiment [3] (setting [5]) was above 50 µM.
Still for that read-out and setting: under `O=C(O)/C(O)=C/C(=O)c1cccn1Cc1ccc(F)cc1` [Compound 10a, (Z)-4-(1-(4-fluorobenzyl)-1H-pyrrol-2-yl)-2-hydroxy-4-oxobut-2-enoic acid] stands 1.16 ± 0.35 µM; under `O=C(O)/C(O)=C/C(=O)c1cc(-c2ccccc2)cn1Cc1ccc(F)cc1` [Compound 10b, (Z)-4-(1-(4-fluorobenzyl)-4-phenyl-1H-pyrrol-2-yl)-2-hydroxy-4-oxobut-2-enoic acid], 3.25 ± 0.66 µM; under `CCOC(=O)/C(O)=C/C(=O)c1ccn(Cc2ccc(F)cc2)c1` [Compound 11a, Ethyl (Z)-4-(1-(4-fluorobenzyl)-1H-pyrrol-3-yl)-2-hydroxy-4-oxobut-2-enoate], above 50 µM.
Consider `O=C(O)/C(O)=C/C(=O)c1ccn(Cc2ccc(F)cc2)c1` [Compound 12a, (Z)-4-(1-(4-fluorobenzyl)-1H-pyrrol-3-yl)-2-hydroxy-4-oxobut-2-enoic acid], for which the IC50 in experiment [3] (setting [5]) is 2.8 ± 0.7 µM.
For “(E)-6-(1-(4-fluorobenzyl)-4-(4-phenoxybenzoyl)-1H-pyrrol-2-yl)-2,4-dioxohex-5-enoic acid [Compound 6e]”, in experiment [3] (setting [5]), the IC50 is reported as above 50 µM.
“Ethyl 4-(1-(4-fluorobenzyl)-4-phenyl-1H-pyrrol-3-yl)-2,4-dioxobutanoate [Compound 11b]”: in experiment [2], the “pol λ (Pol) Residual activity (%) Mg2+” value worked out at 70.0% and the “pol λ (Pol) Residual activity (%) Mn2+” value came out at 94.0%. For the same molecule, the IC50 in experiment [3] (setting [5]) is listed as above 50 µM. Also, in experiment [4], the “pol β Residual activity (%) Mg2+” value amounted to 60.5% and the “pol β Residual activity (%) Mn2+” value was determined as 88%.
